In paper PMC5808567 (Journal of medicinal chemistry, 2018):

Columns and labels:
[1] = system: normal mobilized peripheral blood progenitor cells; details: cited from earlier work
[2] = Metal chelation by UV spectroscopy, Fe3+; assay type: physicochemical; details: 100 µM E-3a, 10 mM ammonium acetate pH 7.0, anaerobic, metal 100 µM-5 mM
[3] = system: HCT116 and MDA-MB-231 cell lines; assay: Growth inhibition assay, both cancer cell lines; assay type: cell-based; details: Homo sapiens, 72 h, read-out: growth inhibition IC50

chelation of Fe^3+ [2]	IC50 [3] [nM]	SMILES	cytotoxicity against normal cells [1]
does not chelate Fe^3+ ions	–	O=C(N/N=C/c1c(O)ccc2ccccc12)c1ccccc1O [E-3a, 2-hydroxy-N'-((2-hydroxynaphthalen-1-yl)methylene)benzohydrazide]	little cytotoxicity
–	30 to 100	Nc1ccn([C@@H]2O[C@H](CO)[C@@H](O)C2(F)F)c(=O)n1 [gemcitabine]	–
